Patent US20260184669A1, “LIPID COMPOUND AND COMPOSITION FOR DELIVERY OF ACTIVE SUBSTANCE” (KOREA RESEARCH INSTIUTE OF BIOSCIENCE AND BIOTECHNOLOGY, priority 2022, published 2026)

What was measured:
[1] = Size, polydispersity index and surface charge of mRNA-LNP (Malvern Zetasizer Nano ZS90); format: physicochemical
Summary of the method: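 Dynamic/electrophoretic light scattering of LNPs diluted in PBS to a final mRNA concentration of 1 μg/mL. Readouts were particle size, PDI and surface charge.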

[2] = Stability of mRNA-LNPs according to storage temperature and duration; format: physicochemical; settings: for Normalized EE % D-7 / PDI D-7 / Size (nm) D-7: day 7; for Normalized EE % D-30 / PDI D-30 / Size (nm) D-30: day 30
Method: Stability of fLuc mRNA-LNPs produced using various ionizable lipids according to the method of Example 27, was assessed by storing the LNPs at 4° C. and 25° C. At 1, 7, and 30 days post-manufacture, the size, PDI, and encapsulation efficiency (EE) of each mRNA-LNPs samples were measured using the methods described in Experimental Examples 2 and 3.

female C57BL/6 mice = assay: Protein expression efficiency of fLuc mRNA-LNPs after intramuscular injection (IVIS whole-body luminescence); format: in vivo; settings: fLuc mRNA-LNP, intramuscular injection, luminescence at injection site, mice
Summary of the method: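 Female C57BL/6 mice (6-10 weeks, n≥4) got intramuscular fLuc mRNA-LNPs at 0.1-0.5 mg/kg mRNA. Injection-site luminescence was imaged under isoflurane at 1-72 h, 10 min after i.p. D-luciferin (200 μL, 15 mg/mL). Expression at 3 h was taken relative to MC3 or SM-102 LNPs.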

[3] = test system: CCL2 mRNA level in HEK-293T cells
[4] = Apparent pKa of mRNA-LNP by TNS binding assay; format: physicochemical; settings: apparent pKa of mRNA-LNP made with the ionizable lipid
Method: The apparent pKa of the mRNA-LNPs prepared according to Example 27 was determined by analysis using 6-(p-toluidino)-2-naphthalenesulfonic acid sodium salt (TNS; Sigma-Aldrich, USA).
However, as the pH decreases, the proportion of positively charged ionizable lipids increases, allowing electrostatic interactions with TNS. […] When the pH of the solution increases and the ionizable lipids become neutralized, TNS can no longer engage in electrostatic interactions. Consequently, TNS loses its lipophilic character, exits the hydrophobic domain, and its fluorescence is quenched. Based on this principle, the pKa of LNPs can be measured by plotting the change in TNS fluorescence intensity in response to variations in the surrounding pH as an S-shaped curve, and calculating the […] of the inflection point. […]
Specifically, a master buffer was prepared containing 10 mM sodium phosphate, 10 mM sodium borate, 10 mM sodium citrate, and 150 mM sodium chloride (NaCl). […] After gently mixing the contents of each well, the fluorescence intensity was measured using a multiplate reader (Cary Eclipse, Agilent Technologies, USA) at an excitation wavelength of λex 330 nm and an emission wavelength of λem 435 nm.

[5] = fLuc mRNA-LNP stored at 4° C., day 1
[6] = fLuc mRNA-LNP stored at 25° C., day 1

Compound: CCCCC/C=C\C/C=C\CCCCCCCCC(CCCCCCCC/C=C\C/C=C\CCCCC)OC(=O)CCCN(C)C [MC3, DLin-MC3-DMA, reference compound]
- PDI ([1]; mRNA-LNP made with the ionizable lipid at its optimal formulation (Table 2)): 0.174
- size (nm) Number ([1]; mRNA-LNP made with the ionizable lipid at its optimal formulation (Table 2), diluted with PBS to 1 μg/mL mRNA): 93 nm
- Zeta (mV) ([1]; surface charge of mRNA-LNP made with the ionizable lipid at its optimal formulation (Table 2)): −2.65 mV
- Normalized EE % D-1 [2, 5]: 95.0%
- Size (nm) D-1 [2, 5]: 92.8 nm
- Normalized EE % D-7 ([2]; fLuc mRNA-LNP stored at 4° C.): 94.0%
- PDI D-7 ([2]; fLuc mRNA-LNP stored at 4° C.): 0.060
- Size (nm) D-7 ([2]; fLuc mRNA-LNP stored at 4° C.): 128.7 nm
- Normalized EE % D-30 ([2]; fLuc mRNA-LNP stored at 4° C.): 90.4%
- PDI D-30 ([2]; fLuc mRNA-LNP stored at 4° C.): 0.142
- Size (nm) D-30 ([2]; fLuc mRNA-LNP stored at 4° C.): 125.6 nm
- Normalized EE % D-1 [2, 6]: 95.0%
- PDI D-1 [2, 6]: 0.174
- Size (nm) D-1 [2, 6]: 92.8 nm
- Normalized EE % D-7 ([2]; fLuc mRNA-LNP stored at 25° C.): 90.8%
- PDI D-7 ([2]; fLuc mRNA-LNP stored at 25° C.): 0.110
- Size (nm) D-7 ([2]; fLuc mRNA-LNP stored at 25° C.): 123.0 nm
- Normalized EE % D-30 ([2]; fLuc mRNA-LNP stored at 25° C.): 88.3%
- PDI D-30 ([2]; fLuc mRNA-LNP stored at 25° C.): 0.123
- Size (nm) D-30 ([2]; fLuc mRNA-LNP stored at 25° C.): 119.3 nm
- Total flux 1 hour (female C57BL/6 mice; 1 hour after administration): 1.20E+06
- Total flux 3 hours (female C57BL/6 mice; 3 hours after administration): 1.24E+07
- Total flux 6 hours (female C57BL/6 mice; 6 hours after administration): 1.78E+07
- Total flux 48 hours (female C57BL/6 mice; 48 hours after administration): 8.41E+05
- Total flux 72 hours (female C57BL/6 mice; 72 hours after administration): 3.89E+05
- Total flux (female C57BL/6 mice; after administration): 1.03E+06
- CCL2 Average [3]: 1.15
- PKa [4]: 6.14
